From patent US20260109715A1, “IMIDAZOPYRIDINE DERIVATIVES WITH BICYCLIC STRUCTURE” (PUBLIC UNIVERSITY CORPORATION YOKOHAMA CITY UNIVERSITY, priority 2022, published 2026) come the findings set out here.

In assay [1] the target is human SMG1 enzyme (Homo sapiens, UniProt Q96Q15). As to the kind of experiment: Measurement of SMG1 kinase activity (ADP-Glo Kinase Assay). It is filed as biochemical. Conditions: purified human SMG1 enzyme 5 nM, Upf1 peptide substrate, ATP 4 μM; qAC50 synonymous with IC50; read-out: Test Example 1 ADP-Glo IC50. The method, boiled down: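 ADP-Glo luminescence readout of ADP made by 5 nM human SMG1 acting on 8 μg/mL Upf1 peptide with 4 μM ATP for 60 min at room temperature, after a 15 min enzyme–compound preincubation (1% DMSO; pH 7.5 HEPES, MnCl2). Activity scaled between DMSO and no-enzyme wells; IC50 by four-parameter logistic regression.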
Chain of human SMG1 enzyme (Q96Q15 whole entry): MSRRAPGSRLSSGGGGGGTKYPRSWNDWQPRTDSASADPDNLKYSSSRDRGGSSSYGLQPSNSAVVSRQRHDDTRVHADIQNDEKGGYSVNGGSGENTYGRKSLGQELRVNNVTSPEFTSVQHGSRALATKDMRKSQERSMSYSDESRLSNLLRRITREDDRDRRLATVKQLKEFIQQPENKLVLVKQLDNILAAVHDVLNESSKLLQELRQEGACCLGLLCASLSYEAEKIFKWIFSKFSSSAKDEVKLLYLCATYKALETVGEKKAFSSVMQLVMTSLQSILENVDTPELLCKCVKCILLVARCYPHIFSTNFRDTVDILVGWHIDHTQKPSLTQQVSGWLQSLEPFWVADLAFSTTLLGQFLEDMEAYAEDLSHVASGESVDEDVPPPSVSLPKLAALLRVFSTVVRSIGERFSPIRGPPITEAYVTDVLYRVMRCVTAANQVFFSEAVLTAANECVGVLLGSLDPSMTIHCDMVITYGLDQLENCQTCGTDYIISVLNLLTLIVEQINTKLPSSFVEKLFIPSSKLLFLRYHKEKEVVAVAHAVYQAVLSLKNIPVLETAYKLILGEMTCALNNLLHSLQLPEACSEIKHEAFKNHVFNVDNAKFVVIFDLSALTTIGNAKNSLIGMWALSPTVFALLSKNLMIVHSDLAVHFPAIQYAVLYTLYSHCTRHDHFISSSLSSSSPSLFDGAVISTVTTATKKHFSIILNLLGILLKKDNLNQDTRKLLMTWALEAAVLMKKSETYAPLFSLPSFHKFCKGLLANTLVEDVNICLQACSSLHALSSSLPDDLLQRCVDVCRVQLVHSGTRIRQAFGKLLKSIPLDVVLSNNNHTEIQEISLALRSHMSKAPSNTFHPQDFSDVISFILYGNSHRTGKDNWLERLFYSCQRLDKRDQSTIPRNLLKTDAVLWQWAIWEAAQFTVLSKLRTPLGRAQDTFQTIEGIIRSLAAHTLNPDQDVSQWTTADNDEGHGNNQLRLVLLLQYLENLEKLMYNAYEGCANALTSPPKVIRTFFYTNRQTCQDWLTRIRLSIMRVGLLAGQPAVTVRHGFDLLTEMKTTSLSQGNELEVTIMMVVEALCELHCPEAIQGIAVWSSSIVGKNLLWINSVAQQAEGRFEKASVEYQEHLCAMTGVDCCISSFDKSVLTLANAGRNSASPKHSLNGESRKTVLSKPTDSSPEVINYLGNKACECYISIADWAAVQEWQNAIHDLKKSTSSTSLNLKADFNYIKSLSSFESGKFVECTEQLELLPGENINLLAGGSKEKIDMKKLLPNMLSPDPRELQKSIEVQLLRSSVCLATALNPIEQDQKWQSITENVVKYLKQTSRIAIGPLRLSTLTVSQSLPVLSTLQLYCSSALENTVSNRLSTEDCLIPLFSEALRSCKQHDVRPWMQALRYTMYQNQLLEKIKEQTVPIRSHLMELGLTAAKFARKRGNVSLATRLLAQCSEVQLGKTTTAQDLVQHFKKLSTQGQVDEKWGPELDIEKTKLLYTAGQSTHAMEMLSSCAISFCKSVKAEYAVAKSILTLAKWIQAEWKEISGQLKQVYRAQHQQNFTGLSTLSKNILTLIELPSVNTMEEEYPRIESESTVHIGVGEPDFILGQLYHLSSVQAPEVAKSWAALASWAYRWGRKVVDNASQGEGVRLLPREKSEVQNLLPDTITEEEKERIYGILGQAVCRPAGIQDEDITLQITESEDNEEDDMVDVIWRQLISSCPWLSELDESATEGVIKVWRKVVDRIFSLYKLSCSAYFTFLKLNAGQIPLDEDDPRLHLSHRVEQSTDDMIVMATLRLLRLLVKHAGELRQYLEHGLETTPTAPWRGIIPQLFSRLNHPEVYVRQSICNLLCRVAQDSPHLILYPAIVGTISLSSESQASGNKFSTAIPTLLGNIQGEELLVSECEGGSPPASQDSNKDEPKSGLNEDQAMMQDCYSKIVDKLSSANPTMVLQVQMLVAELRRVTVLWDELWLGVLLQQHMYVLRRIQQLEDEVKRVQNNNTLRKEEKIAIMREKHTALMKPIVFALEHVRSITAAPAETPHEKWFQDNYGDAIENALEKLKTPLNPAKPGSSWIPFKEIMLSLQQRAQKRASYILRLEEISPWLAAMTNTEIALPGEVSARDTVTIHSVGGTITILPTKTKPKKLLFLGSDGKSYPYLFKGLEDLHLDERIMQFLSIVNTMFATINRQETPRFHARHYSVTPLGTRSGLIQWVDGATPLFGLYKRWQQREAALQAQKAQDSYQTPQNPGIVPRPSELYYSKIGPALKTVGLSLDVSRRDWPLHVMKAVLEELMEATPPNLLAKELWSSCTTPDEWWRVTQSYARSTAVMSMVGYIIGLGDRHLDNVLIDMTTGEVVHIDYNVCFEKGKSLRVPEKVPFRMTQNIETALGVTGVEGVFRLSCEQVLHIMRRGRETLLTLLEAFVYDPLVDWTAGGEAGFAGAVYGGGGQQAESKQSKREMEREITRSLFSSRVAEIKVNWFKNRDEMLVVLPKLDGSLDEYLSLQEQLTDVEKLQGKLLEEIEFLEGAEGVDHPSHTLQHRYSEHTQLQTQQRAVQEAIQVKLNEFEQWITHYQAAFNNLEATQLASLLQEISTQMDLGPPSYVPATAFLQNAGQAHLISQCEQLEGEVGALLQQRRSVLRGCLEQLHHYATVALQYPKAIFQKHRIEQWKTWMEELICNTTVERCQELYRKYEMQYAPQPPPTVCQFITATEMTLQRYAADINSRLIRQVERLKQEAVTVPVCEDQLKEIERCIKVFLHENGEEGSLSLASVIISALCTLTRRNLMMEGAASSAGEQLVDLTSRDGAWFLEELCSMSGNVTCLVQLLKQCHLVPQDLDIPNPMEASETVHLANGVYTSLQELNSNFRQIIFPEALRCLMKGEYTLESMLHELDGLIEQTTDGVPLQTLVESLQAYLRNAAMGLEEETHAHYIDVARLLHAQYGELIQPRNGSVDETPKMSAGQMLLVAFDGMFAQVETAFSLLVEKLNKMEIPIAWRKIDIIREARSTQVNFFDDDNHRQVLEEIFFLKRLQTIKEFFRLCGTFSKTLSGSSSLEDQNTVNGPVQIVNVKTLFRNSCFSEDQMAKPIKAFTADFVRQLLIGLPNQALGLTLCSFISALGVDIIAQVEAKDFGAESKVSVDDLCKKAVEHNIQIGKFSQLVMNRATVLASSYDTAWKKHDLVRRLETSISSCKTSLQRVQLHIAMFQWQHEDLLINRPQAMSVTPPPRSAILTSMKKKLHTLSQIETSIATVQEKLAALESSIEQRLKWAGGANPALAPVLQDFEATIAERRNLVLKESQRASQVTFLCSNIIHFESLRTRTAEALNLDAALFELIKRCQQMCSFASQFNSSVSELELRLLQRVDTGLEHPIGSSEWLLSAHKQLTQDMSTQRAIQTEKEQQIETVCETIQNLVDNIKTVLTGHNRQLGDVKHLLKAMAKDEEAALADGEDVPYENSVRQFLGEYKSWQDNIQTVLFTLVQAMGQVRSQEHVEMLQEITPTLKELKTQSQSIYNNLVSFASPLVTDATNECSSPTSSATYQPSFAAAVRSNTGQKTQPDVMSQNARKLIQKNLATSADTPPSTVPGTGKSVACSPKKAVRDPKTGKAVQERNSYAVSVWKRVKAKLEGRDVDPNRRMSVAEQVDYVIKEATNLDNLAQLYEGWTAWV
(In general: In ADP-Glo the light output rises with the ADP produced.)

In assay [2] the test system is Snhg1 transcript in tumor tissues of mice subcutaneously implanted with EMT6 murine breast cancer cell line. The assay can be described thus: Evaluation of NMD inhibitory activity in vivo (Snhg1 transcript in EMT6 tumor tissue after oral administration). Conditions: 6 hours after administration, BALB/c mice. The method, then:
The NMD inhibitory activity of a compound of the present invention or a pharmaceutically acceptable salt thereof in vivo can be measured, for example, by the method described below. Using mice subcutaneously implanted with EMT6 murine breast cancer cell line, tumor tissues 6 hours after oral administration of a test substance are excised, and the increase in Snhg1 transcript is quantified as an indicator of NMD inhibition in the tumor, in the same manner as in the in vitro method.
In this test, NMD inhibitory activity in tumor tissues was evaluated when a test substance was orally administered to mice subcutaneously implanted with EMT6 murine breast cancer cell line. As an indicator of NMD inhibitory activity, the increase in the transcript of Snhg1, an NMD target gene, was quantified. First, BALB/c mice were subcutaneously implanted with EMT6 cells (ATCC), and engraftment was confirmed 7 days later. Six hours after administration of the test substance, mice were euthanized, and the collected tumor tissues were cryopreserved. RNA was extracted from the tumor tissues using the illustra RNAspin Mini RNA Isolation kit (GE Healthcare Life Sciences). After synthesizing cDNA using the High-Capacity cDNA Reverse Transcription Kits (Applied Biosystems, 4368813), the cDNA was mixed with PrimeTime Gene Expression Master Mix (Integrated DNA Technologies) and various probes, and gene expression was quantified by QuantStudio 6 Flex (Thermo Fisher Scientific Inc.). For the probe for the Snhg1 gene, which is an NMD target, Mm.PT.58.44039547 (FAM) (Integrated DNA Technologies) was used, and for the probe for the Gapdh gene, which is an endogenous control, Mm99999915_g2 (VIC-PL) (Applied Biosystems) was used. The relative quantification of Snhg1 transcripts in each sample was calculated by the ΔΔCT method using Gapdh as an endogenous control, and the expression level of Snhg1 in each test substance administration group was calculated by setting the expression level of the Vehicle group (0.5% methylcellulose administration group) to 1.

Assay [3] concerns Snhg1 transcript (NMD target gene) in EMT6 murine breast cancer cell line. The assay can be described thus: Measurement of NMD inhibitory activity in cells (increase in Snhg1 transcript, real-time PCR). On the set-up: species or system mouse. As to conditions: Mus musculus, 6 hours treatment, concentration giving 1/2 of maximum Snhg1 fold change of positive control, read-out: Test Example 2 Cell-based Snhg1 EC50. The method, boiled down:
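EMT6 cells treated with serially diluted compound (2% DMSO final) for 6 h; Snhg1 transcript quantified by real-time PCR (ΔΔCT, Tbp endogenous control, untreated wells set to 1). EC50 taken as concentration giving half the maximum fold change of a known NMD inhibitor positive control.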
Background: Quantitative PCR measures a nucleic acid by following its amplification.

The IC50 is the concentration that inhibits the measured activity by half. As a reminder, the EC50 is the concentration at which the effect is half-maximal. Turning to `CCc1nc(Cl)cc2[nH]c(-c3cc4c(-c5cnc(OC)nc5OC)nccc4[nH]c3=O)nc12` [Example 70, 3-(6-chloro-4-ethyl-1H-imidazo[4,5-c]pyridin-2-yl)-5-(2,4-dimethoxypyrimidin-5-yl)-1,6-naphthyridin-2(1H)-one], the IC50 in assay [1] amounted to 0.56 nM. The same compound gave a Snhg1 fold change in assay [2] (10 mg/kg oral) of 3.6. Moreover, the EC50 in assay [3] amounted to 15 nM.

`COc1ncc(-c2nccc3[nH]c(=O)c(-c4nc5c(NCC(F)F)nc(Cl)cc5[nH]4)cc23)c(OC)n1` [Example 72, 3-(6-chloro-4-[(2,2-difluoroethyl)amino]-1H-imidazo[4,5-c]pyridin-2-yl)-5-(2,4-dimethoxypyrimidin-5-yl)-1,6-naphthyridin-2(1H)-one]: in assay [1], the half-inhibitory concentration (IC50) came out at 0.81 nM. In assay [2] (30 mg/kg oral), this compound displayed a Snhg1 fold change of 4.3. The EC50 in assay [3] amounted to 4.5 nM.

For the compound `Cc1nn(C(F)F)c(C)c1-c1nccc2[nH]c(=O)c(-c3nc4c(C)nc(Cl)cc4[nH]3)cc12` [Example 84, 3-(6-chloro-4-methyl-1H-imidazo[4,5-c]pyridin-2-yl)-5-[1-(difluoromethyl)-3,5-dimethyl-1H-pyrazol-4-yl]-1,6-naphthyridin-2(1H)-one], the IC50 in assay [1] amounted to 1 nM. The same compound yielded a Snhg1 fold change in assay [2] (10 mg/kg oral) of 4.6. Moreover, in assay [3], the EC50 came out at 42 nM.

As for `Cc1nn(C(F)F)c(C)c1-c1nccc2[nH]c(=O)c(-c3nc4c(N5C[C@@H](O)C[C@H]5C)nc(Cl)cc4[nH]3)cc12` [Example 85, 3-{6-chloro-4-[(2R,4S)-4-hydroxy-2-methylpyrrolidin-1-yl]-1H-imidazo[4,5-c]pyridin-2-yl}-5-[1-(difluoromethyl)-3,5-dimethyl-1H-pyrazol-4-yl]-1,6-naphthyridin-2(1H)-one], the IC50 in assay [1] amounted to 0.39 nM. The compound also came in with a Snhg1 fold change in assay [2] (10 mg/kg oral) of 6.9. Moreover, the concentration for a half-maximal effect (EC50) in assay [3] was 0.47 nM.

In the case of `Cc1nc(Cl)cc2[nH]c(-c3cc4c(-c5c(C6CC6)nn(C(F)F)c5C)nccc4[nH]c3=O)nc12` [Example 91, 3-(6-chloro-4-methyl-1H-imidazo[4,5-c]pyridin-2-yl)-5-[3-cyclopropyl-1-(difluoromethyl)-5-methyl-1H-pyrazol-4-yl]-1,6-naphthyridin-2(1H)-one], the IC50 in assay [1] turned out to be 1.8 nM. Further, in assay [2] (10 mg/kg oral), the Snhg1 fold change was determined as 5.9. In assay [3], the 50% effective concentration (EC50) is 34 nM.

In the case of `CCc1nc(Cl)cc2[nH]c(-c3cc4c(-c5c(C6CC6)nn(C(F)F)c5C)nccc4[nH]c3=O)nc12` [Example 92, 3-(6-chloro-4-ethyl-1H-imidazo[4,5-c]pyridin-2-yl)-5-[3-cyclopropyl-1-(difluoromethyl)-5-methyl-1H-pyrazol-4-yl]-1,6-naphthyridin-2(1H)-one], the half-maximal inhibitory concentration (IC50) in assay [1] is 1.9 nM. This compound also had a Snhg1 fold change in assay [2] (10 mg/kg oral) of 6.5. Further, the 50% effective concentration (EC50) in assay [3] came to 20 nM.

Regarding `C[C@@H]1COCCN1c1nc(Cl)cc2[nH]c(-c3cc4cnccc4[nH]c3=O)nc12.Cc1ccc(S(=O)(=O)O)cc1` [Example 117, 3-{6-chloro-4-[(3R)-3-methylmorpholin-4-yl]-1H-imidazo[4,5-c]pyridin-2-yl}-1,6-naphthyridin-2(1H)-one p-toluenesulfonate], in assay [1], the IC50 is 5.1 nM. Besides, the Snhg1 fold change in assay [2] (10 mg/kg oral) amounted to 5.1. Further, the EC50 in assay [3] came to 80 nM.

Consider `CS(=O)(=O)O.C[C@@H]1C[C@@H](F)CN1c1nc(Cl)cc2[nH]c(-c3cc4cnccc4[nH]c3=O)nc12` [Example 118, 3-{6-chloro-4-[(2R,4R)-4-fluoro-2-methylpyrrolidin-1-yl]-1H-imidazo[4,5-c]pyridin-2-yl}-1,6-naphthyridin-2(1H)-one methanesulfonate], for which the 50% inhibitory concentration (IC50) in assay [1] turned out to be 1.8 nM. Further, the Snhg1 fold change in assay [2] (10 mg/kg oral) is recorded as 9.1. The EC50 in assay [3] turned out to be 34 nM.

As for `CS(=O)(=O)O.Cc1nccc2[nH]c(=O)c(-c3nc4c(N5CC[C@H]5C)nc(Cl)cc4[nH]3)cc12` [Example 123, 3-{6-chloro-4-[(2R)-2-methylazetidin-1-yl]-1H-imidazo[4,5-c]pyridin-2-yl}-5-methyl-1,6-naphthyridin-2(1H)-one methanesulfonate], in assay [1], the IC50 stood at 1.6 nM. In addition, the Snhg1 fold change in assay [2] (30 mg/kg oral) turned out to be 4.4. Moreover, in assay [3], the EC50 was 46 nM.

Turning to `CS(=O)(=O)O.Cc1nccc2[nH]c(=O)c(-c3nc4c(N5CCOC[C@H]5C)nc(Cl)cc4[nH]3)cc12` [Example 124, 3-{6-chloro-4-[(3R)-3-methylmorpholin-4-yl]-1H-imidazo[4,5-c]pyridin-2-yl}-5-methyl-1,6-naphthyridin-2(1H)-one methanesulfonate], in assay [1], the IC50 was 3.2 nM. Besides, in assay [2] (10 mg/kg oral), the Snhg1 fold change turned out to be 4.6. Further, in assay [3], the 50% effective concentration (EC50) came to 55 nM.

As for `CS(=O)(=O)O.Cc1nccc2[nH]c(=O)c(-c3nc4c(C5CCOCC5)nc(Cl)cc4[nH]3)cc12` [Example 125, 3-[6-chloro-4-(tetrahydro-2H-pyran-4-yl)-1H-imidazo[4,5-c]pyridin-2-yl]-5-methyl-1,6-naphthyridin-2(1H)-one methanesulfonate], the IC50 in assay [1] amounted to 0.72 nM. This compound also registered a Snhg1 fold change in assay [2] (10 mg/kg oral) of 6.5. In addition, in assay [3], the concentration for a half-maximal effect (EC50) was 23 nM.

Take `CS(=O)(=O)O.O=c1[nH]c2ccncc2cc1-c1nc2c(C3CCOCC3)nc(Cl)cc2[nH]1` [Example 126, 3-[6-chloro-4-(tetrahydro-2H-pyran-4-yl)-1H-imidazo[4,5-c]pyridin-2-yl]-1,6-naphthyridin-2(1H)-one methanesulfonate]: the half-inhibitory concentration (IC50) in assay [1] is 1.6 nM. Moreover, the Snhg1 fold change in assay [2] (30 mg/kg oral) is 4.1. For the same compound, the EC50 in assay [3] amounted to 29 nM.

Regarding `CCc1nccc2[nH]c(=O)c(-c3nc4c(C5CCOCC5)nc(Cl)cc4[nH]3)cc12.CS(=O)(=O)O` [Example 127, 3-[6-chloro-4-(tetrahydro-2H-pyran-4-yl)-1H-imidazo[4,5-c]pyridin-2-yl]-5-ethyl-1,6-naphthyridin-2(1H)-one methanesulfonate], the IC50 in assay [1] turned out to be 0.96 nM. In addition, in assay [2] (10 mg/kg oral), the Snhg1 fold change worked out at 6.2. Also, in assay [3], the EC50 was 34 nM.

`CC1(c2nccc3[nH]c(=O)c(-c4nc5c(C6CCOCC6)nc(Cl)cc5[nH]4)cc23)CC1` [Example 128, 3-[6-chloro-4-(tetrahydro-2H-pyran-4-yl)-1H-imidazo[4,5,c]pyridin-2-yl]-5-(1-methylcyclopropyl)-1,6-naphthyridin-2(1H)-one methanesulfonate]: the IC50 in assay [1] is 4.5 nM. This compound registered a Snhg1 fold change in assay [2] (30 mg/kg oral) of 6.2. In addition, the EC50 in assay [3] worked out at 56 nM.

For `CS(=O)(=O)O.Cc1ccccc1-c1nccc2[nH]c(=O)c(-c3nc4c(NCC(F)(F)F)nc(Cl)cc4[nH]3)cc12` [Example 129, 3-{6-chloro-4-[(2,2,2-trifluoroethyl)amino]-1H-imidazo[4,5-c]pyridin-2-yl}-5-(2-methylphenyl)-1,6-naphthyridin-2(1H)-one methanesulfonate], the half-maximal inhibitory concentration (IC50) in assay [1] was determined as 3.5 nM. This compound returned a Snhg1 fold change in assay [2] (10 mg/kg oral) of 9.0. The concentration for a half-maximal effect (EC50) in assay [3] is 17 nM.

With `COc1ccc(F)cc1-c1nccc2[nH]c(=O)c(-c3nc4c(C)nc(Cl)cc4[nH]3)cc12.CS(=O)(=O)O` [Example 131, 3-(6-chloro-4-methyl-1H-imidazo[4,5-c]pyridin-2-yl)-5-(5-fluoro-2-methoxyphenyl)-1,6-naphthyridin-2(1H)-one methanesulfonate], in assay [1], the IC50 was determined as 0.78 nM. In assay [2] (10 mg/kg oral), this compound came in with a Snhg1 fold change of 7.1. Moreover, in assay [3], the EC50 was 22 nM.
